Results on four compounds are retold here after patent US11053204B2, “Pyrimidinyloxy benzene derivatives as herbicides” (FMC Corporation, priority 2015, dated 2021).

Holding throughout (format): in vivo
Assay [1] has as its system large (Lg) crabgrass (Digitaria sanguinalis). The experiment in a line: Test A postemergence, visual injury rating. As to conditions: 0 is no effect, 100 is complete control. The gist of the method: (§1)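 Visual injury scored 0–100 (100 = complete control) against untreated controls about 10 days after treatment in a greenhouse. Test chemicals, formulated with surfactant in non-phytotoxic solvent, were sprayed on soil preemergence or on 2-10 cm, one- to two-leaf plants postemergence.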

Assay [2] has as its system wheat (Triticum aestivum). Put plainly: Test A postemergence, visual injury rating. The conditions noted are these: 0 is no effect, 100 is complete control. The gist of the method: as §1
The test system of assay [3] is pigweed (Amaranthus retroflexus). The experiment in a line: Test A postemergence, visual injury rating. The conditions noted are these: 0 is no effect, 100 is complete control. Summed up:
as §1

Assay [4] has as its system velvetleaf (Abutilon theophrasti). Put plainly: Test A postemergence, visual injury rating. As to conditions: 0 is no effect, 100 is complete control. The gist of the method:
as §1

Assay [5] relates to giant foxtail (Setaria faberii). Put plainly: Test A postemergence, visual injury rating. The conditions noted are these: 0 is no effect, 100 is complete control. Summed up:
as §1

For assay [6], the system named is corn (Zea mays). The experiment in a line: Test A postemergence, visual injury rating. The conditions noted are these: 0 is no effect, 100 is complete control. The gist of the method: as §1
Assay [7] relates to morningglory (Ipomoea spp.). The experiment in a line: Test A postemergence, visual injury rating. As to conditions: 0 is no effect, 100 is complete control. Summed up:
as §1

Assay [8] has as its system barnyardgrass (Echinochloa crus-galli). Put plainly: Test A postemergence, visual injury rating. As to conditions: 0 is no effect, 100 is complete control. Summed up: as §1
Assay [9] deals with large (Lg) crabgrass (Digitaria sanguinalis). The experiment in a line: Test A preemergence, visual injury rating. As to conditions: 0 to 100 scale (0 no effect, 100 complete control). The gist of the method:
as §1

Assay [10] concerns wheat (Triticum aestivum). The experiment in a line: Test A preemergence, visual injury rating. The conditions noted are these: 0 to 100 scale (0 no effect, 100 complete control). Summed up:
as §1

Assay [11] relates to pigweed (Amaranthus retroflexus). The experiment in a line: Test A preemergence, visual injury rating. As to conditions: 0 to 100 scale (0 no effect, 100 complete control). Summed up:
as §1

In assay [12] the test system is velvetleaf (Abutilon theophrasti). Put plainly: Test A preemergence, visual injury rating. The conditions noted are these: 0 to 100 scale (0 no effect, 100 complete control). Summed up: as §1
Assay [13] relates to giant foxtail (Setaria faberii). Put plainly: Test A preemergence, visual injury rating. As to conditions: 0 to 100 scale (0 no effect, 100 complete control). The gist of the method:
as §1

Assay [14] relates to corn (Zea mays). The experiment in a line: Test A preemergence, visual injury rating. The conditions noted are these: 0 to 100 scale (0 no effect, 100 complete control). The gist of the method: as §1
Assay [15] has as its system morningglory (Ipomoea spp.). The experiment in a line: Test A preemergence, visual injury rating. The conditions noted are these: 0 to 100 scale (0 no effect, 100 complete control). The gist of the method: as §1
The subject of assay [16] is barnyardgrass (Echinochloa crus-galli). Put plainly: Test A preemergence, visual injury rating. As to conditions: 0 to 100 scale (0 no effect, 100 complete control). The gist of the method: as §1
The test system of assay [17] is rice (Oryza sativa). The experiment in a line: Test B flooded paddy test, plant response rating. As to conditions: 250 g ai/ha; Flood; scale of 0 to 100 where 0 is no effect and 100 is complete control; 13 to 15 days. Summed up: (§2)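 Compound was added to standing water 3 cm above soil, flood maintained, and plants held in a greenhouse before visual scoring against controls at 13 to 15 days.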

The test system of assay [18] is ducksalad (Heteranthera limosa). The experiment in a line: Test B flooded paddy test, plant response rating. The conditions noted are these: 250 g ai/ha; Flood; scale of 0 to 100 where 0 is no effect and 100 is complete control; 13 to 15 days. Summed up:
as §2

The subject of assay [19] is barnyardgrass (Echinochloa crus-galli). Put plainly: Test B flooded paddy test, plant response rating. The conditions noted are these: 250 g ai/ha; Flood; scale of 0 to 100 where 0 is no effect and 100 is complete control; 13 to 15 days. The gist of the method: as §2
The test system of assay [20] is sedge, umbrella (small-flower umbrella sedge, Cyperus difformis). Put plainly: Test B flooded paddy test, plant response rating. The conditions noted are these: 250 g ai/ha; Flood; scale of 0 to 100 where 0 is no effect and 100 is complete control; 13 to 15 days. The gist of the method:
as §2

`O=C(NCC(F)(F)F)c1ccccc1Oc1ncc(Br)cn1` [Compound 27]: the “Crabgrass, Large plant response rating (0 to 100 scale)” value (from here on “Crabgrass … (0 to 100 scale)”) in [1] (500 g ai/ha) came out at 0. Moreover, in assay [2] (500 g ai/ha), the “Wheat plant response rating (0 to 100 scale)” value was 0. The “Pigweed plant response rating (0 to 100 scale)” value in assay [3] (500 g ai/ha) was found to be 0. In addition, the “Velvetleaf plant response rating (0 to 100 scale)” value in [4] (500 g ai/ha) worked out at 0. Moreover, the “Foxtail, Giant plant response rating (0 to 100 scale)” value (shortened to “Foxtail … (0 to 100 scale)”) in [5] (500 g ai/ha) turned out to be 0. Moreover, in [6] (500 g ai/ha), the “Corn plant response rating (0 to 100 scale)” value is listed as 0. In addition, in assay [7] (500 g ai/ha), the “Morningglory plant response rating (0 to 100 scale)” value is on record as 0. In addition, the “Barnyardgrass plant response rating (0 to 100 scale)” value in [8] (500 g ai/ha) was found to be 0. In addition, the “Crabgrass, Large plant response rating” value in assay [9] (500 g ai/ha) was found to be 0. In assay [10] (500 g ai/ha), the “Wheat plant response rating” value is 0. In addition, in assay [11] (500 g ai/ha), the “Pigweed plant response rating” value is 0. Moreover, in [12] (500 g ai/ha), the “Velvetleaf plant response rating” value was found to be 0. Further, the “Foxtail, Giant plant response rating” value in assay [13] (500 g ai/ha) was determined as 0. Further, the “Corn plant response rating” value in assay [14] (500 g ai/ha) was found to be 0. In addition, the “Morningglory plant response rating” value in [15] (500 g ai/ha) stood at 0. Further, in [16] (500 g ai/ha), the “Barnyardgrass plant response rating” value is on record as 0.
As to `O=C(NCC(F)(F)F)c1ccccc1Oc1ncc(Cl)cn1` [Compound 28, 2-[(5-chloro-2-pyrimidinyl)oxy]-N-(2,2,2-trifluoroethyl)benzamide], in [1] (500 g ai/ha), the “Crabgrass … (0 to 100 scale)” value turned out to be 0. Further, the plant injury at 500 g/ha in [2] (Triticum aestivum, post-emergence, 240 h, 500 g ai/ha, read-out: Wheat plant response rating (0 to 100 scale)) was determined as 0%; in [6] (Zea mays, post-emergence, 240 h, 500 g ai/ha, read-out: Corn plant response rating (0 to 100 scale)) it was 0%. The pest or weed control at 500 g/ha in assay [3] (Amaranthus retroflexus, post-emergence, 240 h, 500 g ai/ha, read-out: Pigweed plant response rating (0 to 100 scale)) is 20%; in [5] (Setaria faberi, post-emergence, 240 h, 500 g ai/ha, read-out: Foxtail, Giant plant response rating (0 to 100 scale)), 0%; in assay [8] (Echinochloa crus-galli, post-emergence, 240 h, 500 g ai/ha, read-out: Barnyardgrass plant response rating (0 to 100 scale)) it was 20%; in assay [11] (Amaranthus retroflexus, pre-emergence, 240 h, 500 g ai/ha, read-out: Pigweed plant response rating), 80%; in assay [13] (Setaria faberi, pre-emergence, 240 h, 500 g ai/ha, read-out: Foxtail, Giant plant response rating), 20%; in assay [16] (Echinochloa crus-galli, pre-emergence, 240 h, 500 g ai/ha, read-out: Barnyardgrass plant response rating), 20%. The “Velvetleaf plant response rating (0 to 100 scale)” value in assay [4] (500 g ai/ha) is on record as 30. Also, the “Morningglory plant response rating (0 to 100 scale)” value in assay [7] (500 g ai/ha) is 0. Also, in [9] (500 g ai/ha), the “Crabgrass, Large plant response rating” value is 50. Moreover, in [10] (500 g ai/ha), the “Wheat plant response rating” value is listed as 0. Moreover, the “Velvetleaf plant response rating” value in [12] (500 g ai/ha) was found to be 20. Also, in assay [14] (500 g ai/ha), the “Corn plant response rating” value worked out at 0. The “Morningglory plant response rating” value in assay [15] (500 g ai/ha) is 0.
For `CC(C)ON=Cc1ccccc1Oc1ncc(Cl)cn1` [Compound 57], the “Plant response rating, Rice” value in assay [17] is on record as 0. Besides, in [18], the “Plant response rating, Ducksalad” value stood at 0. Further, the “Plant response rating, Barnyardgrass” value in assay [19] worked out at 0. Further, the “Plant response rating, Sedge, Umbrella” value in assay [20] was determined as 0. In addition, in assay [1] (1000 g ai/ha), the “Crabgrass … (0 to 100 scale)” value is given as 30. Also, in assay [2] (1000 g ai/ha), the “Wheat plant response rating (0 to 100 scale)” value came out at 20. For the same compound, the “Pigweed plant response rating (0 to 100 scale)” value in assay [3] (1000 g ai/ha) turned out to be 40. Besides, the “Foxtail … (0 to 100 scale)” value in assay [5] (1000 g ai/ha) is on record as 20. In assay [6] (1000 g ai/ha), the “Corn plant response rating (0 to 100 scale)” value came to 20. In assay [7] (1000 g ai/ha), the “Morningglory plant response rating (0 to 100 scale)” value came out at 10. Besides, in assay [8] (1000 g ai/ha), the “Barnyardgrass plant response rating (0 to 100 scale)” value was found to be 20. In addition, the “Crabgrass, Large plant response rating” value in assay [9] (1000 g ai/ha) is on record as 100. Further, the “Wheat plant response rating” value in assay [10] (1000 g ai/ha) is 0. In addition, the “Pigweed plant response rating” value in assay [11] (1000 g ai/ha) is listed as 60. Also, the “Velvetleaf plant response rating” value in assay [12] (1000 g ai/ha) stood at 20. The “Foxtail, Giant plant response rating” value in [13] (1000 g ai/ha) was 90. Moreover, the “Corn plant response rating” value in assay [14] (1000 g ai/ha) came out at 0. Also, the “Morningglory plant response rating” value in assay [15] (1000 g ai/ha) was 0. For the same compound, the “Barnyardgrass plant response rating” value in assay [16] (1000 g ai/ha) turned out to be 50.
Turning to `CC(=NOCc1ccccc1)c1ccccc1Oc1ncc(Cl)cn1` [Compound 58], the “Plant response rating, Rice” value in assay [17] is recorded as 0. Also, the “Plant response rating, Ducksalad” value in assay [18] is 0. Further, the “Plant response rating, Barnyardgrass” value in [19] turned out to be 0. Further, the “Plant response rating, Sedge, Umbrella” value in assay [20] was 0. Besides, the “Crabgrass … (0 to 100 scale)” value in assay [1] (1000 g ai/ha) is listed as 80. In addition, in assay [2] (1000 g ai/ha), the “Wheat plant response rating (0 to 100 scale)” value is 20. For the same compound, the “Pigweed plant response rating (0 to 100 scale)” value in assay [3] (1000 g ai/ha) was found to be 100. In addition, the “Velvetleaf plant response rating (0 to 100 scale)” value in assay [4] (1000 g ai/ha) worked out at 90. Also, the “Foxtail … (0 to 100 scale)” value in assay [5] (1000 g ai/ha) was determined as 60. In assay [6] (1000 g ai/ha), the “Corn plant response rating (0 to 100 scale)” value was 30. In addition, in assay [7] (1000 g ai/ha), the “Morningglory plant response rating (0 to 100 scale)” value is 30. Further, the “Barnyardgrass plant response rating (0 to 100 scale)” value in [8] (1000 g ai/ha) came to 40. The “Crabgrass, Large plant response rating” value in assay [9] (1000 g ai/ha) worked out at 100. Moreover, the “Wheat plant response rating” value in assay [10] (1000 g ai/ha) amounted to 20. In addition, the “Pigweed plant response rating” value in [11] (1000 g ai/ha) came to 50. In addition, in assay [12] (1000 g ai/ha), the “Velvetleaf plant response rating” value is 20. The “Foxtail, Giant plant response rating” value in assay [13] (1000 g ai/ha) was determined as 100. For the same compound, the “Corn plant response rating” value in assay [14] (1000 g ai/ha) came to 20. Also, the “Morningglory plant response rating” value in assay [15] (1000 g ai/ha) was determined as 0. Moreover, in [16] (1000 g ai/ha), the “Barnyardgrass plant response rating” value stood at 90.
